{"source": "patent US20180333399A1", "about": "“METHOD OF IMPROVING LIVER FUNCTION” (NAIA METABOLIC, INC., priority 2012, published 2018)", "key": {"db/db mice [1]": {"test_system": "db/db mice", "assay": "Fasting blood glucose in db/db mice, 9 days oral gavage", "assay_type": "in vivo", "description": "(§1) All reagents were purchased from Sigma-Aldrich (Australia). Dosing solutions of methazolamide were prepared fresh daily in sterile saline:PEG400 at 65:35 (v/v), protected from light and stored at room temperature. Male db/db mice (Animal Resource Centre, Australia) were housed with free access to water and food (standard rodent diet: Barastoc Rat & Mouse, Ridley Agriproducts, Australia). Room temperature was maintained at 21±2° C., humidity 40-70%, with a 12 h light/dark cycle. Mice were treated with methazolamide (50 mg/kg/day) or vehicle (n=4 per group) by single oral gavage doses each day for 9 days.\n(§2) Daily blood samples were obtained from the tail tip of each mouse and glucose levels measured using a glucometer (AccuCheck II; Roche, Australia). At the end of the study, the animals were humanely killed and a portion of liver tissue (left lobe) was removed and fixed in 10% neutral-buffered formalin. The liver tissue was paraffin-embedded, sectioned (5 μm), mounted and stained with hematoxylin and eosin."}, "db/db mice [2]": {"test_system": "db/db mice", "assay": "Liver histology (hematoxylin and eosin) in db/db mice", "assay_type": "in vivo", "conditions": "after 9 days, 50 mg/kg/day; 3 of the 4 vehicle-treated animals had a high degree of hepatic steatosis", "description": "as §1, §2"}, "type 2 diabetes patients": {"test_system": "type 2 diabetes patients", "assay": "24 week randomised, placebo-controlled double-blind clinical trial: blood ALT levels", "assay_type": "in vivo, human", "conditions": "for ΔALT Week 12, Mean ± SD / ΔALT Week 12, Median (range): change from baseline (Day 0) to Week 12; for ΔALT Week 12, Mean ± SD / ΔALT Week 12, Median (range) / ΔALT Week 24, Mean ± SD / ΔALT Week 24, Median (range): 40 mg b.i.d.; for ΔALT Week 24, Mean ± SD / ΔALT Week 24, Median (range): change from baseline (Day 0) to Week 24; for ΔALT Week 12, MTZ-Placebo / ΔALT Week 24, MTZ-Placebo: difference of mean ΔALT versus matching placebo group", "text": "The primary efficacy endpoint for the clinical trial was a reduction in HbA1c (ΔHbA1c) from baseline with methazolamide, relative to placebo, after 24 weeks of treatment. The primary safety measurement was the effect of methazolamide, compared to placebo, on venous blood gas parameters; a measure of acidosis. The clinical trial initially enrolled type 2 diabetes patients who were not treated with any anti-diabetic agent prior to entry into the trial. […] The metformin dose was not altered throughout the trial. Participant baseline demographic data are provided in Table 1-1, Participants randomized into the clinical trial were administered either daily doses of methazolamide (40 mg b.i.d.) or placebo for 24 weeks. Methazolamide was taken as 1×30 mg capsule and 1×10 mg capsule per dose at breakfast and dinner. Placebo (microcrystalline cellulose) was administered in identical presentation. […] Mean ALT levels over time are depicted in FIGS. 1(A) and 1(B)."}, "db/db mice [3]": {"test_system": "db/db mice", "assay": "Hepatic lipid content (modified Folch extraction) in db/db mice", "assay_type": "in vivo", "description": "as §1\nA separate portion of the liver (right lobe) was used to measure hepatic lipid content. Lipid was extracted using a modified Folch protocol. The tissue was homogenised in 2:1 chloroform/methanol solution (10 ml), and filtered into a […] glass centrifuge tube. An additional 5 ml of 2:1 chloroform/methanol solution was added, followed by 2.5 ml of 0.9% NaCl. After thorough mixing, the extract was centrifuged for 5 min at 2,000 g at 10° C. After discarding the aqueous layer, the organic layer was dried under nitrogen, and total lipid content was assessed by weighing."}, "[4]": {"conditions": "Week 12, methazolamide 40 mg b.i.d., listed as All MTZ (Alone + Met)"}, "[5]": {"conditions": "methazolamide 40 mg b.i.d., listed as All MTZ (Alone + Met)"}, "[6]": {"conditions": "methazolamide 40 mg b.i.d., listed as MTZ Alone"}, "[7]": {"conditions": "baseline (Day 0), before treatment, type 2 diabetes patients, listed as MTZ Alone"}, "[8]": {"conditions": "listed as All MTZ (Alone + Met)"}}, "note": "Marks after values point to notes of the source that are not given here."}
{"smiles": "CC(=O)/N=c1/sc(S(N)(=O)=O)nn1C", "note": "[methazolamide]", "values": [{"measurement": "Fasting Blood Glucose, Day 0", "setting": "db/db mice [1]; Day 0 (baseline), male db/db mice, n=4", "value": "26.0 ± 1.2", "unit": "mM"}, {"measurement": "Fasting Blood Glucose, Day 9", "setting": "db/db mice [1]; Day 9, 50 mg/kg/day oral gavage, p < 0.05 vs Day 0", "value": "13.7 ± 2.4", "unit": "mM"}, {"measurement": "reduction of fasting blood glucose levels relative to vehicle treated-controls", "setting": "db/db mice [1]; db/db mice, 50 mg/kg/day, 9 days", "value": 47, "unit": "%"}, {"measurement": "treated db/db mice that appeared to have greatly reduced hepatic steatosis (liver histology)", "setting": "db/db mice [2]", "value": "2 of the 4"}, {"measurement": "ALT Week 12, Mean ± SD", "setting": "type 2 diabetes patients; [4]", "value": "20.9 ± 9.8", "unit": "U/L"}, {"measurement": "ALT Week 12, Median (range)", "setting": "type 2 diabetes patients; [4]", "value": "19 (8-50) U/L"}, {"measurement": "ALT Week 12, Mean ± SD", "setting": "type 2 diabetes patients; Week 12, methazolamide 40 mg b.i.d., listed as MTZ Alone", "value": "22.1 ± 10.1", "unit": "U/L"}, {"measurement": "ALT Week 24, Mean ± SD", "setting": "type 2 diabetes patients; [5]", "value": "21.3 ± 12.3", "unit": "U/L"}, {"measurement": "ALT Week 24, Median (range)", "setting": "type 2 diabetes patients; [5]", "value": "20 (7-64) U/L"}, {"measurement": "ALT Week 24, Mean ± SD", "setting": "type 2 diabetes patients; [6]", "value": "22.0 ± 12.6", "unit": "U/L"}, {"measurement": "ALT Week 24, Median (range)", "setting": "type 2 diabetes patients; [6]", "value": "17 (9-49) U/L"}, {"measurement": "ALT Day 0, Median (range)", "setting": "type 2 diabetes patients; baseline (Day 0), before treatment, type 2 diabetes patients, listed as All MTZ (Alone + Met)", "value": "27.5 (16-83) U/L"}, {"measurement": "ALT Day 0, Mean ± SD", "setting": "type 2 diabetes patients; [7]", "value": "33.1 ± 16.9", "unit": "U/L"}, {"measurement": "ALT Day 0, Median (range)", "setting": "type 2 diabetes patients; [7]", "value": "29 (16-83) U/L"}, {"measurement": "ΔALT Week 12, Mean ± SD", "setting": "type 2 diabetes patients; [8]", "value": "−10.9 ± 7.7"}, {"measurement": "ΔALT Week 12, Median (range)", "setting": "type 2 diabetes patients; [8]", "value": "−9 (−40, −2)"}, {"measurement": "ΔALT Week 12, Mean ± SD", "setting": "type 2 diabetes patients; listed as MTZ Alone", "value": "−10.4 ± 9.3"}, {"measurement": "ΔALT Week 12, Median (range)", "setting": "type 2 diabetes patients; listed as MTZ Alone", "value": "−8.5 (−40, −4)"}, {"measurement": "ΔALT Week 24, Mean ± SD", "setting": "type 2 diabetes patients; [8]", "value": "−10.7 ± 8.2"}, {"measurement": "ΔALT Week 24, Median (range)", "setting": "type 2 diabetes patients; [8]", "value": "−8.5 (−34, +4)"}, {"measurement": "ΔALT Week 24, Mean ± SD", "setting": "type 2 diabetes patients; listed as MTZ Alone", "value": "−11.0 ± 8.1"}, {"measurement": "ΔALT Week 24, Median (range)", "setting": "type 2 diabetes patients; listed as MTZ Alone", "value": "−8 (−34, −3)"}, {"measurement": "ΔALT Week 12, MTZ-Placebo", "setting": "type 2 diabetes patients; Week 12, listed as All MTZ (Alone + Met)", "value": "−14.8*^§"}, {"measurement": "ΔALT Week 12, MTZ-Placebo", "setting": "type 2 diabetes patients; Week 12, listed as MTZ Alone", "value": "−18.1"}, {"measurement": "ΔALT Week 24, MTZ-Placebo", "setting": "type 2 diabetes patients; [8]", "value": "−9.3^†§"}, {"measurement": "ΔALT Week 24, MTZ-Placebo", "setting": "type 2 diabetes patients; listed as MTZ Alone", "value": "−8.0"}, {"measurement": "time of treatment after which reduction in blood ALT levels was evident", "setting": "type 2 diabetes patients; patients treated with methazolamide", "value": 1, "unit": "week"}, {"measurement": "time of treatment after which reduced ALT level reached a plateau", "setting": "type 2 diabetes patients; plateau maintained for the remainder of the 24 week treatment period", "value": 2, "unit": "weeks"}, {"measurement": "Liver lipid content (% of liver weight), Day 9", "setting": "db/db mice [3]; Day 9, 50 mg/kg/day oral gavage, p < 0.05 vs vehicle", "value": "7.4 ± 1.2", "unit": "%"}, {"measurement": "liver lipid content (w/w) lower compared to vehicle treated controls", "setting": "db/db mice [3]; after 9 days of treatment, db/db mice", "value": 48, "unit": "%"}]}
